# Assay results published in patent publication US20010053796A1, “Delta-aminolevulinic acid for prevention and treatment of infection microorganisms and parasite” (priority 2000, published 2001).
# Legend:
# Staphylococcus epidermis = test: Prevention effect for artificial infection (abdominal injection of bacteria); type: in vivo, Bastardhalibut; settings: for Mortality during Cultivation: dead of 20 fish
# Description: The water temperature was maintained at 20° C. (±2° C. ) throughout the experiment. […]
# Bastardhalibut and Sebastes schlegeli were infected by […] Staphylococcus epidermis through abdominal injection with the same method of fish breeding; δ-aminolevulinic acid treatment and artificial carried out in Experiment 1 and 2. Each experimental fish was moved to fish tanks for monitoring and monitored for mortality according to infection for 2 weeks. […] The treated group, with δ-aminolevulinic acid by tank administraion method and oral administration method, has shown high viability.
# Pseudomonas sp. = test: as above; type: in vivo, Sebastes schlegeli; settings: for Mortality during Cultivation: dead of 20 fish
# Description: The water temperature was maintained at 20° C. (±2° C. ) throughout the experiment.
# As the same method of above Experiment 1, fishes of both control group and experiment group were prepared and artificially infected by direct abdominal injection of Edwardsiella tarda 10^5 CFU per 1 fish. Each experimental fish was moved to fish tanks for monitoring and monitored for mortality according to infection for 2 weeks and viability after 2 weeks.
# Bastardhalibut and Sebastes schlegeli were infected by Pseudomonas sp. through abdominal injection with the same method of fish breeding; δ-aminolevulinic acid treatment and artificial infection carried out in Experiment 1 and 2. Each experimental fish was moved to fish tanks for monitoring and monitored for mortality according to infection for 2 weeks.
# Sebastes schlegeli = test: Breeding before Scutica artificial infection (mortality during cultivation); type: in vivo; settings: 1˜3 weeks; for Mortality during Cultivation: dead of 20 fish
# Description: The water temperature was maintained at 20° C. (±2° C.) throughout the experiment.
# Scutica = test: Application to Scutica-infected seedling nursery; type: in vivo, flatfish; settings: 30 ppm formalin day 1, then 1 ppm for 2 hrs on days 2 and 3
# Description: Seedling was produced in flatfish seedling nursery and flatfish fry in seedling nursery, where marketing had stopped due to the infection of Scutica in a marketing stage (the length 5˜6 cm). They were treated with δ-aminolevulinic acid made by the inventors. Seriously infected fish were collected from seedling nursery and contained in water tanks and treated. On the first day, the fish were treated with 30 ppm formalin and, on the second and third day, were treated δ-aminolevulinic acid at concentration of 1 ppm for 2 hrs. […] Cultivation in a water tank of a fish farm where the ozone treatment system, which can control pathogenic organisms in seawater for cultivating, was applied has shown possibility of normal cultivation.
# [1] = test system: White Spot Syndrome Virus (WSSV); test: Treatment for WSSV infected shrimp; type: in vivo, Penaeus Chinesis
# Description: In this experiment, after injection of the viral homogenate aforementioned in EXPERIMENT 1, treatment group was immersed respectively in 0.01˜10 ppm of ALA for 1.5 hour for 3 days.
# Birnavirus = test: Treatment effect on eel disease of Birnavirus (field); type: in vivo; settings: 0.1˜10 ppm added to the farm; after 3 weeks administration
# Description: In the example, the experiment was carried out in the field at the Eel Aguacultural Farm, Gochang and Kunsan, in Chunbuk, Korea. Eels were dead by infection of Birnavirus, which was easely confirmed by microscopical or electron microscopical observation.
# ALA, at the concentration range of 0.1˜10 ppm was added to the farm for 3 months. After 3 weeks administration, motality was decreased to less than 10% (1˜2kg).
# [2] = test system: RTG-2 (Rainbow Trout Gonad); settings: 24 h
# Description: δ-aminolevulinic acid feed were prepared to 1.0 M concentration (0. 167 g/mL HBSS) and diluted by 10-fold dilution method. 100 μl of each fish cell line suspension of 2.5×10^5 were placed into 96-well microplate and then, 100 μl of each of the resulting diluted solution, 4 well/dilution unit, were added respectively. Fish cell lines, which were used for this cell toxicity experiment of δ-aminolevulinic acid, were RTG-2 (Rainbow Trout Gonad), FHM (Fathead Minnow Epithelioma) and CHSE (Chinook Salmon Embryo) lotted out from Dr. M. Yoshimizu of the Department of Fisheries, Hokkaido University, Japan. For these experimental cells, 100 U/mL penicillin (Sigma), 100 μl/mL streptomycin (Sigma) and MEM media supplemented with 5% fetal bovine serum (FBS, Gibco) for cell culture were used. Cultured cells in 96-well microplate was incubated for 3 hrs at 15° C. and δ-aminolevulinic acid were added to wells at amounts of 100 μl of 0, 1.0, 10, 50 and 100 mM and incubated for 24 hrs at 18° C. As a control group, instead of δ-aminolevulinic acid, HBSS was added at the same amount. […] Absorbance was measured with an ELISA reader at 570 μl.
# [3] = orally, 1.0 ppm in feed, Sebastes schlegeli
# [4] = orally, 10 ppm in feed, Sebastes schlegeli
# [5] = orally, 100 ppm in feed, Sebastes schlegeli
# [6] = to fish tanks, 0.01 ppm, Sebastes schlegeli
# [7] = to fish tanks, 0.1 ppm, Sebastes schlegeli
# [8] = to fish tanks, 1.0 ppm, Sebastes schlegeli
smiles,measurement,setting,value
NCC(=O)CCC(=O)O [δ-aminolevulinic acid],Viability,"Staphylococcus epidermis; orally, 0.1 ppm in feed",50%
same,Mortality during Cultivation,"Staphylococcus epidermis; orally, 0.1 ppm in feed",10
same,Viability,"Staphylococcus epidermis; orally, 1.0 ppm in feed",55%
same,Mortality during Cultivation,"Staphylococcus epidermis; orally, 1.0 ppm in feed",9
same,Viability,"Staphylococcus epidermis; orally, 10 ppm in feed",70%
same,Mortality during Cultivation,"Staphylococcus epidermis; orally, 10 ppm in feed",6
same,Viability,"Staphylococcus epidermis; orally, 100 ppm in feed",80%
same,Mortality during Cultivation,"Staphylococcus epidermis; orally, 100 ppm in feed",4
same,Viability,"Staphylococcus epidermis; to fish tanks, 0.01 ppm",55%
same,Mortality during Cultivation,"Staphylococcus epidermis; to fish tanks, 0.01 ppm",9
same,Viability,"Staphylococcus epidermis; to fish tanks, 0.1 ppm",65%
same,Mortality during Cultivation,"Staphylococcus epidermis; to fish tanks, 0.1 ppm",7
same,Viability,"Staphylococcus epidermis; to fish tanks, 1.0 ppm",65%
same,Mortality during Cultivation,"Staphylococcus epidermis; to fish tanks, 1.0 ppm",7
same,Viability,"Staphylococcus epidermis; to fish tanks, 10 ppm",75%
same,Mortality during Cultivation,"Staphylococcus epidermis; to fish tanks, 10 ppm",5
same,Viability,"Pseudomonas sp.; orally, 0.1 ppm in feed",60%
same,Mortality during Cultivation,"Pseudomonas sp.; orally, 0.1 ppm in feed",8
same,Viability,Pseudomonas sp.; [3],60%
same,Mortality during Cultivation,Pseudomonas sp.; [3],8
same,Viability,Pseudomonas sp.; [4],85%
same,Mortality during Cultivation,Pseudomonas sp.; [4],3
same,Viability,Pseudomonas sp.; [5],85%
same,Mortality during Cultivation,Pseudomonas sp.; [5],3
same,Viability,Pseudomonas sp.; [6],55%
same,Mortality during Cultivation,Pseudomonas sp.; [6],9
same,Viability,Pseudomonas sp.; [7],55%
same,Mortality during Cultivation,Pseudomonas sp.; [7],9
same,Viability,Pseudomonas sp.; [8],85%
same,Mortality during Cultivation,Pseudomonas sp.; [8],3
same,Viability,"Pseudomonas sp.; to fish tanks, 10 ppm",90%
same,Mortality during Cultivation,"Pseudomonas sp.; to fish tanks, 10 ppm",2
same,Viability,Sebastes schlegeli; oral (100 ppm per feed 1 kg),100%
same,Mortality during Cultivation,Sebastes schlegeli; oral (100 ppm per feed 1 kg),0
same,Viability,Sebastes schlegeli; to fish tanks (10 ppm),100%
same,Mortality during Cultivation,Sebastes schlegeli; to fish tanks (10 ppm),0
same,examination of infection through sampling of fish body,Scutica; after 2 weeks of cultivation,no infection by Scutica
same,vitality of treated fish,Scutica; after 1 day of treatment,highly improved
same,Cumulative mortality,"[1]; 0.01 ppm, after injection for 3 weeks",100%
same,Mortality after injection for 3 weeks,"[1]; 0.01 ppm, day 1, 50 shrimp",0
same,Mortality after injection for 3 weeks,"[1]; 0.01 ppm, day 2, 50 shrimp",0
same,Mortality after injection for 3 weeks,"[1]; 0.01 ppm, day 3, 50 shrimp",15
same,Mortality after injection for 3 weeks,"[1]; 0.01 ppm, day 4, 50 shrimp",20
same,Mortality after injection for 3 weeks,"[1]; 0.01 ppm, day 5, 50 shrimp",12
same,Mortality after injection for 3 weeks,"[1]; 0.01 ppm, day 6, 50 shrimp",3
same,Cumulative mortality,"[1]; 0.1 ppm, after injection for 3 weeks",18%
same,Mortality after injection for 3 weeks,"[1]; 0.1 ppm, day 1, 50 shrimp",0
same,Mortality after injection for 3 weeks,"[1]; 0.1 ppm, day 2, 50 shrimp",0
same,Mortality after injection for 3 weeks,"[1]; 0.1 ppm, day 3, 50 shrimp",4
same,Mortality after injection for 3 weeks,"[1]; 0.1 ppm, day 4, 50 shrimp",3
same,Mortality after injection for 3 weeks,"[1]; 0.1 ppm, day 5, 50 shrimp",2
same,Mortality after injection for 3 weeks,"[1]; 0.1 ppm, day 6, 50 shrimp",0
same,Mortality after injection for 3 weeks,"[1]; 0.1 ppm, day 7, 50 shrimp",0
same,Mortality after injection for 3 weeks,"[1]; 0.1 ppm, day 21, 50 shrimp",0
same,Cumulative mortality,"[1]; 1.0 ppm, after injection for 3 weeks",10%
same,Mortality after injection for 3 weeks,"[1]; 1.0 ppm, day 1, 50 shrimp",0
same,Mortality after injection for 3 weeks,"[1]; 1.0 ppm, day 2, 50 shrimp",0
same,Mortality after injection for 3 weeks,"[1]; 1.0 ppm, day 3, 50 shrimp",3
same,Mortality after injection for 3 weeks,"[1]; 1.0 ppm, day 4, 50 shrimp",2
same,Mortality after injection for 3 weeks,"[1]; 1.0 ppm, day 5, 50 shrimp",0
same,Mortality after injection for 3 weeks,"[1]; 1.0 ppm, day 6, 50 shrimp",0
same,Mortality after injection for 3 weeks,"[1]; 1.0 ppm, day 7, 50 shrimp",0
same,Mortality after injection for 3 weeks,"[1]; 1.0 ppm, day 21, 50 shrimp",0
same,Cumulative mortality,"[1]; 10 ppm, after injection for 3 weeks",8%
same,Mortality after injection for 3 weeks,"[1]; 10 ppm, day 1, 50 shrimp",0
same,Mortality after injection for 3 weeks,"[1]; 10 ppm, day 2, 50 shrimp",0
same,Mortality after injection for 3 weeks,"[1]; 10 ppm, day 3, 50 shrimp",3
same,Mortality after injection for 3 weeks,"[1]; 10 ppm, day 4, 50 shrimp",1
same,Mortality after injection for 3 weeks,"[1]; 10 ppm, day 5, 50 shrimp",0
same,Mortality after injection for 3 weeks,"[1]; 10 ppm, day 6, 50 shrimp",0
same,Mortality after injection for 3 weeks,"[1]; 10 ppm, day 7, 50 shrimp",0
same,Mortality after injection for 3 weeks,"[1]; 10 ppm, day 21, 50 shrimp",0
same,Cumulative mortality,"[1]; immersion 1.0 ppm, 1.5 hour for 3 days after virus injection, 3 weeks",10%
same,Cumulative mortality,"[1]; immersion 10 ppm, 1.5 hour for 3 days after virus injection, 3 weeks",8%
same,mortality,Birnavirus,less than 10%
same,safe range of toxicity,[2],below 10 mM
